Experimental data reported in US20240398764A1, “METHODS OF TREATING DISEASES ASSOCIATED WITH SENESCENT CELL ACCUMULATION” (University of Florida Research Foundation, Incorporated, priority 2021, published 2024).

Key:
[1] = biological target: Bcl-2 (Homo sapiens, UniProt P10415); experiment: Immunoblot of Bcl-2 degradation in HEK293T cells; type: cell-based; design: endogenous in cells; conditions: different concentrations for 16 h, or 1 μM for various time points
Method: FIG. 1A depicts immunoblots showing degradation of Bcl-xl and Bcl-2 in HEK293T cells treated with various concentrations of 753b for 16 hours. FIG. 1B depicts immunoblots showing degradation of Bcl-xl and Bcl-2 in HEK293T cells treated with 1 μM 753b for various durations. 3-actin was used as a loading control.
The potency of 753b in degrading Bcl-xl/2 was evaluated in 293T cells by immunoblots after the cells were treated with different concentrations of 753b for 16 h (FIG. 1A) or after the cells were treated with 1 μM 753b for various time points as indicated (FIG. 1B). Representative immunoblots are shown, and β-actin was used as a loading control.

[2] = tested on: normal non-senescent HUVEC (Non-SnC HUVEC); experiment: Viability of Non-SnC HUVEC; type: cell-based, human; conditions: 72 hr incubation; vs ABT263
Method: (§1) FIGS. 3A to 3B depicts viability of non-SnC human umbilical vein endothelial cells (HUVEC) and IR-induced SnC HUVEC treated with varying concentrations of ABT263 (FIG. 3A) or 753b (FIG. 3B). FIGS. 3C to 3D depict viability of non-SnC renal epithelial cells (REC), IR-induced SnC REC, and replicative senescent REC treated with varying concentrations of ABT263 (FIG. 3C) or 753b (FIG. 3D).
(§2) The viability of Non-SnC HUVEC, Non-SnC REC, IR-SnC HUVEC, IR-SnC REC, and Rep-SnC REC was measured 72 hr after they were incubated with increasing concentrations of 753b or ABT263 compared to cells/platelets with vehicle.

[3] = tested on: human platelets; experiment: Viability of human platelets; type: cell-based; conditions: 48 hr incubation; vs ABT263
Source text: (§3) FIG. 2A depicts immunoblots showing degradation of Bcl-xl and Bcl-2 in non-senescent WI-38 fibroblast cells (Non-SnCs) treated with varying concentrations of 753b. 3-actin was used as a loading control. FIG. 2B depicts viability of Non-SnCs treated with varying concentrations of 753b or ABT263. FIG. 2C depicts immunoblots showing degradation of Bcl-xl and Bcl-2 in ionizing radiation-induced senescent WI-38 fibroblast cells (IR-SnCs) treated with varying concentrations of 753b. 3-actin was used as a loading control. FIG. 2D depicts viability of IR-SnCs treated with varying concentrations of 753b or ABT263. FIG. 2E depicts immunoblots showing degradation of Bcl-xl and Bcl-2 in human platelets treated with varying concentrations of 753b. FIG. 2F depicts viability of human platelets treated with varying concentrations of 753b or ABT263.
(§4) The potency of 753b in degrading Bcl-xl/2 was evaluated by immunoblots after the cells or platelets were treated with different concentrations of 753b for 16 h ([…]). 753b is more cytotoxic to IR-SnCs but less toxic to Non-SnCs and platelets. The viability of Non-SnCs, IR-SnCs and platelets was measured 72 hr (Non-SnCs and IR-SnCs) and 48 hr (platelets) after they were incubated with increasing concentrations of 753b or ABT263 compared to cells/platelets with vehicle.

[4] = biological target: Bcl-xl (Homo sapiens, UniProt Q07817); experiment: Immunoblot of Bcl-xl degradation in human platelets; type: cell-based; design: endogenous in cells; host or cells: human platelets; conditions: different concentrations, 16 h
Source text: as §3, §4

[5] = tested on: senescent cells induced by STZ/HFD in the liver; experiment: Senescent cell clearance in livers of STZ/HFD mice (p16/p21 mRNA, SA-β-gal staining); type: in vivo, C57BL6 mice; conditions: 5 mg/kg twice a week IP
Method: (§5) GAPDH was used as a loading control. FIG. 6B depicts the relative expression of p16 and p21 at mRNA levels in the livers of STZ/HFD mice treated with 753b or vehicle control. *p<0.05. FIGS. 6C to 6D show senescence-associated beta-galactosidase (SA-β-gal) stained livers of STZ/HFD mice treated with vehicle control (FIG. 6C) or 753b (FIG. 6D). Scale bar: […].
(§6) Experimental design: C57BL6 mice were injected with Streptozotocin (STZ) at postnatal day 2 to induce diabetes and then fed with HFD from postnatal day 30 till the end of the experiments (FIG. 5). Half of the mice started receiving vehicle and the others receiving 753b (5 mg/kg) treatment on postnatal day 45 twice a week by IP injection till the end of the experiments. A group of the mice were euthanized at postnatal day 90 (or day 45 after the initiation of the treatment) for analysis of senescent cell accumulation and steatosis. Another group of the mice were euthanized at postnatal day 150 (or day 105 after the initiation of the treatment) for analysis of liver fibrosis and cancer.
(§7) 753b effectively clears senescent cells induced by STZ/HFD in the liver. The liver tissues were collected from mice at postnatal day 90 (p90 or 45 days after treatment) for the analyses. […] Data were means±SD of triplicate experiments.

[6] = biological target: T1, Bcl-xL (Mus musculus, UniProt Q64373); experiment: Bcl-xL level in livers of STZ/HFD mice (Western blotting); type: in vivo, C57BL6 mice; conditions: 5 mg/kg twice a week IP, postnatal day 90, vs vehicle
T1 construct: Western blot of Bcl-xl levels in the livers of STZ/HFD mice treated with 753b or vehicle control; from tissue; host or cells: liver of C57BL6 mice (STZ plus high fat diet)
Method: as §5, §6, §7

[7] = Myofibroblast cell activation and liver fibrosis in the STAM model; type: in vivo, C57BL6 mice; conditions: STZ/HFD mice, 5 mg/kg twice a week IP, postnatal day 150
Method: FIG. 9A depicts relative change in aSMA, Procollagen-1, Tgf-β, Ctgf, and Pdgf-β genes in livers of STZ/HFD mice treated with vehicle control or 753b. Data were means±SD of triplicate experiments. *p<0.05. […] Scale bar: […]. […] Actin was used as a loading control. FIG. 9D depicts hydroxyproline (μg/g) levels in the liver of STZ/HFD mice treated with vehicle control or 753b. *p<0.05.
as §6
753b administration inhibits myofibroblast cell activation and liver fibrosis in the STAM model. All the analyses were done in mice at postnatal day 150 (p150 or 105 days after treatment). […] Quantification was performed from 5 livers per group and was expressed as means±SD.

[8] = tested on: replicative senescent REC (Rep-SnC REC); experiment: Viability of Rep-SnC REC; type: cell-based; conditions: 72 hr incubation; vs ABT263
Method: as §1, §2

T1 sequence (Q64373 whole entry): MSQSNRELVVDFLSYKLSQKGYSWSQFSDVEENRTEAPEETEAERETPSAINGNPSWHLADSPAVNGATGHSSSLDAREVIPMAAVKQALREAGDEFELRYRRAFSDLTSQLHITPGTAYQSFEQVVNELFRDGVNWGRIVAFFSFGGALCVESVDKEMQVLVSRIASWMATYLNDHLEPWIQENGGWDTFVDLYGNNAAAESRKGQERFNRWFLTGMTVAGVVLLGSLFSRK
Chain of Bcl-xl (Q07817 whole entry): as the sequence (Q64373 whole entry) above, with E40G, A43S, R45M, S168A, D193E counted along it
Chain of Bcl-2 (P10415 whole entry): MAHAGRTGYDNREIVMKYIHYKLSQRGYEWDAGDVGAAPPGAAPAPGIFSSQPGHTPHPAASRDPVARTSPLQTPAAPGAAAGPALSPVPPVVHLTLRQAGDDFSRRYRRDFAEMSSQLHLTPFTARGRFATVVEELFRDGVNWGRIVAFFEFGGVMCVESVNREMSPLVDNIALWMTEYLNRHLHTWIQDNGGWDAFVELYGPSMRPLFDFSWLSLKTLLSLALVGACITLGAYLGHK

Bcl-xl degradation in human platelets [4]: not in human platelets | Bcl-xL accumulation in the livers [6]: reduced Bcl-xL accumulation
SMILES: Cc1ncsc1-c1ccc([C@H](C)NC(=O)[C@@H]2C[C@@H](O)CN2C(=O)[C@@H](NC(=O)CCCCCCC(=O)N2CCN(C[C@]3(C)CCC(c4ccc(Cl)cc4)=C(CN4CCN(c5ccc(C(=O)NS(=O)(=O)c6ccc(N[C@H](CCN7CCOCC7)CSc7ccccc7)c(S(=O)(=O)C(F)(F)F)c6)cc5)CC4)C3)CC2)C(C)(C)C)cc1 [Compound 753b]
Bcl-2 degradation [1]: degrades Bcl-xl and Bcl-2 in a dose- and time-dependent manner | Toxicity (viability) to Non-SnC HUVEC compared with ABT263 [2]: less toxic | Toxicity (viability) to human platelets compared with ABT263 [3]: less toxic | Senescent cell burden in the liver (SA-β-gal staining) ([5]; postnatal day 90): reduced senescent cell burden | p16 mRNA level in the liver ([5]; postnatal day 90, Q-RT-PCR): inhibited upregulation | p21 mRNA level in the liver ([5]; postnatal day 90, Q-RT-PCR): inhibited upregulation | Collagen level in livers (hepatic hydroxyproline assay) [7]: decreased levels of collagen | Liver fibrosis (aSMA immunofluorescent staining and sirius red staining) [7]: prevented liver fibrosis | aSMA and pro-collagen type I protein levels in livers (Western blotting) [7]: low levels of aSMA and pro-collagen type I proteins | Levels of fibrosis-related genes in livers (Q-RT-PCR) ([7]; vs controls): lower levels of fibrosis-related genes | Senolytic potency (viability) against Rep-SnC REC compared with ABT263 [8]: more potent senolytic agent
